Test results from patent publication US11293023B2, “Tunable endogenous protein degradation” (Dana-Farber Cancer Institute, Inc., priority 2015, dated 2022).

How the values were obtained:
Type in all cases: cell-based
[1] = test system: FKBP*-KRASG12V; assay: Immunoblot of FKBP*-KRASG12V (dTAG-KRAS) degradation in NIH3T3 cells
Experimental: (§1) FIG. 11 is an immunoblot of NIH3T3 cells expressing KRASG12V allele fused to FKBP* in the N-terminus or C-terminus. Cells were treated with 500 nM dFKBP7 for the indicated time. Cells were harvested and immunoblotted to measure degradation of FKBP*-KRASG12V and downstream surrogates of KRAS signaling (e.g. pMEK and pAKT).
(§2) FIG. 12 is an immunoblot of NIH3T3 cells expressing FKBP* fused to the N-terminus of KRASG12V treated with 1 uM of the indicated dFKBP heterobifunctional compounds for 24 hours. Cells were harvested and immunoblotted to measure degradation of FKBP*-KRASG12V and downstream surrogates of KRAS signaling (e.g. pMEK and pAKT).
as §2, with “FIG. 13” for “FIG. 12”, “with” for “with 1 uM of”, “indicated concentrations of dFKBP13” for “indicated dFKBP heterobifunctional compounds”
(§3) FIG. 14 is an immunoblot of NIH3T3 cells expressing FKBP* fused to the N-terminus of KRASG12V treated with 1 uM dFKBP13 for the indicated time. Cells were harvested and immunoblotted to measure degradation of FKBP*-KRASG12V and downstream surrogates of KRAS signaling (e.g. pMEK and pAKT).
FIG. 15 is an immunoblot of NIH3T3 cells expressing dTAG-KRASG12V pretreated with 1 uM Carfilzomib (proteasome inhibitor), 0.5 uM MLN4924 (neddylation inhibitor), and 10 uM Lenalidomide (CRBN binding ligand) for two hours prior to a 4 hour treatment with dFKBP13.
(§4) Cells were treated with 500 nM dFKBP7 for the indicated time. Cells were harvested and immunoblotted to measure degradation of FKBP*-KRAS and downstream surrogates of KRAS signaling (e.g. pMEK and pAKT).
(§5) In an effort to identify the best performing dFKBP molecule, dTAG-KRAS degradation was profiled across a series of dFKBP molecules. Western blotting of NIH3T3 cells expressing dTAG-KRASG12V were treated with 1 μM of the indicated dFKBP heterobifunctional compounds for 24 hours. Cells were harvested and immunoblotted to measure degradation of FKBP*-KRAS and downstream surrogates of KRAS signaling (e.g. pMEK and pAKT).
(§6) Western blotting of NIH3T3 cells expressing FKBP* fused to the N-terminus of KRAS treated with the indicated concentrations of dFKBP13 for 24 hours. Cells were harvested and immunoblotted to measure degradation of FKBP*-KRAS and downstream surrogates of KRAS signaling (e.g. pMEK and pAKT).
(§7) To evaluate the kinetic control of targeted degradation of dTAG-KRAS, dFKBP13 was administered by increased duration. Western blotting of NIH3T3 cells expressing FKBP* fused to the N-terminus of KRAS treated with 1 μM dFKBP13 for the indicated time. Cells were harvested and immunoblotted to measure degradation of FKBP*-KRAS and downstream surrogates of KRAS signaling (e.g. pMEK and pAKT).
NIH3T3 cells (CRBN-WT) were engineered to express dTAG-KRASG12V. Cells were pretreated with 1 uM Carfilzomib (proteasome inhibitor), 0.5 uM MLN4924 (neddylation inhibitor), and 10 uM Lenalidomide (CRBN binding ligand) for two hours prior to a 4 hour treatment with dFKBP13. Lysates were prepared and western immunoblot analysis performed. […] Pre-treatment with the NAE1 inhibitor MLN4924 rescued dTAG-KRASG12V expression establishing dependence on CRL activity, as expected for cullin-based ubiquitin ligases that require neddylation for processive E3 ligase activity. Pre-treatment with excess Lenalidomide abolished dFKBP13-dependent dTAG-KRASG12V degradation, confirming the requirement of CRBN engagement for degradation.

[2] = target: T1, FKBP* (FKBP12 F36V), HA-tagged (Homo sapiens, UniProt P62942, F37V); assay: Immunoblot of FKBP* degradation in 293FT cells (CRBN-WT or CRBN−/−)
T1 construct: expressed in transfected cells; host or cells: 293FT cells (CRBN-WT or CRBN-/-)
Experimental: 293FT cells (CRBN-WT or CRBN−/−) expressing either HA-tagged FKBP12WT or FKBP* were treated with indicated concentrations of dFKBP7 for 4 hours.
Isogenic 293FT cells (CRBN-WT or CRBN−/−) expressing either FKBP12WT or FKBP* were treated with 100 nM of either dFKBP7 or dFKBP13 for 4 hours.
Isogenic 293FT cells (CRBN-WT or CRBN−/−) expressing HA-tagged FKBP* were treated with the indicated dose of dFKBP13 for 4 hours.
(§8) 293FT cells (CRBN-WT) expressing FKBP* were pretreated with 1 uM Carfilzomib (proteasome inhibitor), 0.5 uM MLN4924 (neddylation inhibitor), and 10 uM Lenalidomide (CRBN binding ligand) for two hours prior to a 4 hour treatment with dFKBP13.
The dTAG is predicated on the selectivity of FKBP* specific ligands over endogenous, wild type FKBP. In 293T cells expressing wild type FKBP12 or FKBP*, dFKBP7 induces targeted degradation only in FKBP* expressing cells. […] 293FT cells (CRBN-WT or CRBN−/−) expressing either HA-tagged FKBP12WT or FKBP* were treated with indicated concentrations of dFKBP7 for 4 hours.
In 293T cells expressing wild type FKBP12 or FKBP*, treatment with dFKBP7 and dFKBP13 induces targeted degradation only in FKBP* expressing cells. Isogenic 293FT cells (CRBN-WT or CRBN−/−) were engineered to expressed either FKBP12WT or FKBP*. Cells were treated with 100 nM of either dFKBP7 or dFKBP13 for 4 hours before lysates were prepared for western immunoblot analysis.
In an effort to define the optimal concentration of dFKB13 heterobifunctional compound to induce degradation of FKBP*, degradation was measured upon treatment with increasing concentrations of dFKBP13. Isogenic 293FT cells (CRBN-WT or CRBN−/−) were engineered to expressed HA-tagged FKBP*. Cells were treated with the indicated dose of dFKBP13 for 4 hours before lysates were prepared for western immunoblot analysis.
as §8, with “were engineered to express FKBP*. Cells” for “expressing FKBP*”, “dFKBP13. Lysates were prepared and western immunoblot analysis performed.” for “dFKBP13.”

[3] = test system: KRAS signaling (pMEK and pAKT); assay: Immunoblot of downstream surrogates of KRAS signaling in NIH3T3 cells expressing dTAG-KRAS; settings: NIH3T3 FKBP*-KRASG12V, 1 uM, 24 hours
Experimental: as §1, §2
as §3, with “13” for “14”, “the indicated concentrations of” for “1 uM”, “24 hours.” for “the indicated time.”
as §3, §4, §5, §6, §7
(§9) The dFKBP13 heterobifunctional compound potently degrades dTAG-KRAS mutant alleles. NIH3T3 cells were engineered to express KRAS alleles either WT or mutant forms of amino acid glycine 12 (G12C, G12D, and G12V). Western blotting of NIH3T3 cells expressing dTAG fused to the N-terminus of KRAS alleles were treated with 1 uM of dFKBP13 for 24 hours. Cells were harvested and immunoblotted to measure degradation of dTAG-KRAS and downstream surrogates of KRAS signaling (e.g. pMEK and pAKT).
as §9, with “express” for “express KRAS alleles”, “KRAS alleles (G13D, Q61L,” for “forms of amino acid glycine 12 (G12C, G12D,”, “Q61R).” for “G12V).”

[4] = 1 uM Carfilzomib, two hours prior to a 4 hour treatment with dFKBP13
[5] = 10 uM Lenalidomide, two hours prior to a 4 hour treatment with dFKBP13
[6] = 0.5 uM MLN4924, two hours prior to a 4 hour treatment with dFKBP13

T1 sequence (P62942 2-108 F37V limits assumed): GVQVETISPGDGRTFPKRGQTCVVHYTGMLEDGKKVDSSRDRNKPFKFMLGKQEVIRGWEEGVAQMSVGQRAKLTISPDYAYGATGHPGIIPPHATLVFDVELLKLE

With CC(C)C[C@H](NC(=O)[C@H](CCc1ccccc1)NC(=O)CN1CCOCC1)C(=O)N[C@@H](Cc1ccccc1)C(=O)N[C@@H](CC(C)C)C(=O)[C@@]1(C)CO1 [Carfilzomib, reference compound] the “effect of pretreatment on dFKBP13-induced degradation of dTAG-KRASG12V” value (from here on “effect of pretreatment … of dTAG-KRASG12V”) [1, 4] was “rescued” and the “effect of pretreatment on dFKBP13-induced degradation of HA-tagged FKBP*” value (“effect of pretreatment … of HA-tagged FKBP*” below) [2, 4] was “rescued”.
With Nc1cccc2c1CN(C1CCC(=O)NC1=O)C2=O (centres unmarked) [Lenalidomide, reference compound] the “effect of pretreatment … of dTAG-KRASG12V” value [1, 5] was “abolished” and the “effect of pretreatment … of HA-tagged FKBP*” value [2, 5] was “abolished”.
In the case of NS(=O)(=O)OC[C@@H]1C[C@@H](n2ccc3c(N[C@H]4CCc5ccccc54)ncnc32)C[C@@H]1O [MLN4924, reference compound], the “effect of pretreatment … of dTAG-KRASG12V” value [1, 6] is reported as “rescued” and the “effect of pretreatment … of HA-tagged FKBP*” value [2, 6] is reported as “rescued”.
For CC[C@H](C(=O)N1CCCC[C@H]1C(=O)O[C@H](CCc1ccc(OC)c(OC)c1)c1cccc(OCC(=O)NCCCCCCCCNC(=O)COc2cccc3c2C(=O)N(C2CCC(=O)NC2=O)C3=O)c1)c1cc(OC)c(OC)c(OC)c1 (some centres unmarked) [dFKBP9], the “downstream signaling (pMEK and pAKT)” value [3] was “inhibition of downstream signaling” and the “degradation of FKBP*-KRASG12V” value ([1]; NIH3T3, 1 uM, 24 hours) was “potent degradation”.
